Legend:
MV4-11 cells = test: MV4-11 cellular proliferative assay, Assay Format B (CTG 2.0, 168 h); format: cell-based; settings: Homo sapiens, 168 h (7 days), CTG 2.0, read-out: IC50 (MV4-11 cellular proliferative assay, Assay format B)
In short: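 Viability read by CellTiter-Glo 2.0 luminescence after 7-day (168 h) compound exposure of MV4-11 cells in IMDM/10% FBS. Ten 3-fold concentrations starting at 1 uM or 100 nM, 0.3% final DMSO; curves normalised to DMSO control, four-parameter fit.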

MLLT1 = target: T1, MLLT1 (Homo sapiens, UniProt Q03111); test: MLLT1 degradation assay in MV4-11 cells (JESS chemiluminescent detection), three concentrations, 24 h; format: cell-based; settings: with respect to DMSO control
T1 construct: host or cells: MV4-11
T1 sequence (Q03111 1-559): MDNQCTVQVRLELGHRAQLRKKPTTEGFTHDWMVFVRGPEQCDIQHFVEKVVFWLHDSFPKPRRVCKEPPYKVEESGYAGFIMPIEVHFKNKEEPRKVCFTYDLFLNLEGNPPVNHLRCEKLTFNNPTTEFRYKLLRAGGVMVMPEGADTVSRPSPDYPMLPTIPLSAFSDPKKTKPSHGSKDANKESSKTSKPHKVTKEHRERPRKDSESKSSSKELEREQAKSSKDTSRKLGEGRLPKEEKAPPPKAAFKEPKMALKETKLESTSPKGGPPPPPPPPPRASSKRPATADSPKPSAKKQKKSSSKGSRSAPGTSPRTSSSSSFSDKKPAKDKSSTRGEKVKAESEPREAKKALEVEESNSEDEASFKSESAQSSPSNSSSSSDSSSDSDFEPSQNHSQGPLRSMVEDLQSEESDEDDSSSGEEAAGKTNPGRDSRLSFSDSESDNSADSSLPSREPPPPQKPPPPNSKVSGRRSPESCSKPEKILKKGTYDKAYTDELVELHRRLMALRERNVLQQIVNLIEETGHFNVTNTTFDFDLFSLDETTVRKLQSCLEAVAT
In short: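 Read-out is % MLLT1 degradation versus DMSO, from band peak areas on a JESS chemiluminescent system. Cells (MV4-11) were exposed for 24 h at 37° C to three compound levels, 10, 100 and 1000 nM, in 0.1% DMSO.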

Compound	IC50 (MV4-11 cells) [nM]	MLLT1% Degradation @ 0.01 μM (MLLT1)	MLLT1% Degradation @ 0.1 μM (MLLT1)	MLLT1% Degradation @ 1 μM (MLLT1)
CN1CCC[C@@H]1c1cc2cnc(NC(=O)c3ccc(N4CCN(CCC5CCN(c6cccc7c6CN(C6CCC(=O)NC6=O)C7=O)CC5)CC4)nc3)cc2[nH]1 (stereo partly drawn) [Example 193, 6-(4-(2-(1-(2-(2,6-dioxopiperidin-3-yl)-1-oxoisoindolin-4-yl)piperidin-4-yl)ethyl)piperazin-1-yl)-N-(2-((R)-1-methylpyrrolidin-2-yl)-1H-pyrrolo[3,2-c]pyridin-6-yl)nicotinamide]	≤ 100	A (Category A: A ≥ 75% degradation)	A (Category A: A ≥ 75% degradation)	B (Category B: 50% ≤ B < 75% degradation)
CN1CCC[C@@H]1c1cc2cnc(NC(=O)c3ccc(CN4CCN(CC5CCN(c6cccc7c6CN(C6CCC(=O)NC6=O)C7=O)CC5)CC4)cc3)cc2[nH]1 (stereo partly drawn) [Example 194, 4-((4-((1-(2-(2,6-dioxopiperidin-3-yl)-1-oxoisoindolin-4-yl)piperidin-4-yl)methyl)piperazin-1-yl)methyl)-N-(2-((R)-1-methylpyrrolidin-2-yl)-1H-pyrrolo[3,2-c]pyridin-6-yl)benzamide]	≤ 100	B (Category B: 50% ≤ B < 75% degradation)	A (Category A: A ≥ 75% degradation)	A (Category A: A ≥ 75% degradation)
CN1CCC[C@@H]1c1cc2cnc(NC(=O)c3ccc(N4CCC(OC=C=Cc5cccc6c5CN(C5CCC(=O)NC5=O)C6=O)CC4)nc3)cc2[nH]1 (stereo partly drawn) [Example 195, 6-(4-((3-(2-(2,6-dioxopiperidin-3-yl)-1-oxoisoindolin-4-yl)propa-1,2-dien-1-yl)oxy)piperidin-1-yl)-N-(2-((R)-1-methylpyrrolidin-2-yl)-1H-pyrrolo[3,2-c]pyridin-6-yl)nicotinamide]	≤ 100	A (Category A: A ≥ 75% degradation)	B (Category B: 50% ≤ B < 75% degradation)	A (Category A: A ≥ 75% degradation)
CN1CCC[C@@H]1c1cc2cnc(NC(=O)c3ccc(CCCC#Cc4cccc5c4CN(C4CCC(=O)NC4=O)C5=O)cn3)cc2[nH]1 (stereo partly drawn) [Example 197, 5-(5-(2-(2,6-dioxopiperidin-3-yl)-1-oxoisoindolin-4-yl)pent-4-yn-1-yl)-N-(2-((R)-1-methylpyrrolidin-2-yl)-1H-pyrrolo[3,2-c]pyridin-6-yl)picolinamide]	≤ 100	A (Category A: A ≥ 75% degradation)	A (Category A: A ≥ 75% degradation)	A (Category A: A ≥ 75% degradation)
CN1CCC[C@@H]1c1cc2cnc(NC(=O)c3ccc(CCCc4ccc(-c5cccc6c5CN(C5CCC(=O)NC5=O)C6=O)cc4)cc3)cc2[nH]1 (stereo partly drawn) [Example 199, 4-(3-(4-(2-(2,6-dioxopiperidin-3-yl)-1-oxoisoindolin-4-yl)phenyl)propyl)-N-(2-((R)-1-methylpyrrolidin-2-yl)-1H-pyrrolo[3,2-c]pyridin-6-yl)benzamide]	≤ 100	A (Category A: A ≥ 75% degradation)	A (Category A: A ≥ 75% degradation)	A (Category A: A ≥ 75% degradation)
CN1CCC[C@@H]1c1cc2cnc(NC(=O)c3ccc(OCCC4CCN(c5cccc6c5CN(C5CCC(=O)NC5=O)C6=O)CC4)c(F)c3)cc2[nH]1 (stereo partly drawn) [Example 206, 4-(2-(1-(2-(2,6-dioxopiperidin-3-yl)-1-oxoisoindolin-4-yl)piperidin-4-yl)ethoxy)-3-fluoro-N-(2-((R)-1-methylpyrrolidin-2-yl)-1H-pyrrolo[3,2-c]pyridin-6-yl)benzamide]	≤ 100	A (Category A: A ≥ 75% degradation)	A (Category A: A ≥ 75% degradation)	A (Category A: A ≥ 75% degradation)

From patent US20260191968A1, “PROTAC DEGRADERS OF MLLT1 AND/OR MLLT3” (DARK BLUE THERAPEUTICS LTD, priority 2024, published 2026)
